Where a name gives a salt, the structure may show the parent alone. Read-outs that look alike come from different tables or passages of the source.

Assay [1] concerns the target T1, SARS-CoV-2 PLpro (nsp3 1564–1878) (Severe acute respiratory syndrome coronavirus 2, UniProt P0DTD1). The assay can be described thus: biochemical. As to conditions: high concentration screen, read-out: % of control remaining. The arrangement: FRET-quenched peptide (Pro3) cleavage by PLpro, 10 min pre-incubation, slope over 20 min, normalised to no-compound control.

The target in assay [2] is T1, SARS-CoV-2 PLpro (nsp3 1564–1878). The assay can be described thus: biochemical. On the set-up: FRET-quenched peptide (Pro3) cleavage by PLpro, 10 min pre-incubation, slope over 20 min, normalised to no-compound control. As to conditions: low concentration screen, read-out: % of control remaining.

With `Clc1ccc2nsnc2c1NC1=NCCN1` [Tizanidine (hydrochloride)], the remaining activity at 3.75 µM in assay [1] (Well no.=6612) is 96%. In assay [2] (Well no.=6612), the remaining activity at 1.25 µM was 105%.

For the compound `Clc1ccc2nsnc2c1NC1=NCCN1` [Tizanidine HCl], the remaining activity at 3.75 µM in assay [1] (Well no.=4851) stood at 99.7%. Also, the remaining activity at 1.25 µM in assay [2] (Well no.=4851) was found to be 101%.

For `Clc1ccc2nsnc2c1NC1=NCCN1` [Tizanidine.HCl], in assay [1] (Well no.=1563), the remaining activity at 3.75 µM was found to be 98%. Also, the remaining activity at 1.25 µM in assay [2] (Well no.=1563) was determined as 98.4%.

For the compound `NC[C@H]1O[C@H](O[C@H]2[C@H](O)[C@@H](O[C@H]3O[C@H](CO)[C@@H](O)[C@H](N)[C@H]3O)[C@H](N)C[C@@H]2N)[C@H](N)C[C@@H]1O` [Tobramycin (free base)], the remaining activity at 3.75 µM in assay [1] (Well no.=1960) is 95.9%. The remaining activity at 1.25 µM in assay [2] (Well no.=1960) came out at 96.2%.

Turning to `C[C@@H]1CCN(C(=O)CC#N)C[C@@H]1N(C)c1ncnc2[nH]ccc12` [Tofacitinib citrate], the remaining activity at 3.75 µM in assay [1] (Well no.=5551) is 109%. For the same compound, in assay [2] (Well no.=5551), the remaining activity at 1.25 µM is 98.9%.

For the compound `CCC1C(C)=NN=C(c2ccc(OC)c(OC)c2)c2cc(OC)c(OC)cc21` (centres unmarked) [Tofisopam], in assay [1] (Well no.=5780), the remaining activity at 3.75 µM was determined as 103%. The remaining activity at 1.25 µM in assay [2] (Well no.=5780) came out at 103%.

Consider `CCc1ccc(Cc2ccc3c(c2)[C@]2(OC3)O[C@H](CO)[C@@H](O)[C@H](O)[C@H]2O)cc1` [Tofogliflozin(CSG 452)], for which, in assay [1] (Well no.=8776), the remaining activity at 3.75 µM stood at 102%. For the same compound, the remaining activity at 1.25 µM in assay [2] (Well no.=8776) was 101%.

Consider `Cc1ccc(S(=O)(=O)NC(=O)NN2CCCCCC2)cc1` [Tolazamide], for which the remaining activity at 3.75 µM in assay [1] (Well no.=1523) is 94.7%; in assay [1] (Well no.=1810), 93.8%. The remaining activity at 1.25 µM in assay [2] (Well no.=1523) amounted to 93.9%; in assay [2] (Well no.=1810), 100%.

Consider `c1ccc(CC2=NCCN2)cc1` [Tolazoline (hydrochloride)], for which the remaining activity at 3.75 µM in assay [1] (Well no.=6231) was found to be 107%. In addition, the remaining activity at 1.25 µM in assay [2] (Well no.=6231) worked out at 104%.

As for `CCCCNC(=O)NS(=O)(=O)c1ccc(C)cc1` [Tolbutamide], the results for the remaining activity at 3.75 µM in assay [1] (Well no.=1329) and in assay [1] (Well no.=1601) were 104% and 97.6%, respectively. Moreover, the remaining activity at 1.25 µM in assay [2] (Well no.=1329) is 107%; in assay [2] (Well no.=1601), 99.7%.

As to `Cc1ccc(C(=O)c2cc(O)c(O)c([N+](=O)[O-])c2)cc1` [Tolcapone], in assay [1] (Well no.=1790), the remaining activity at 3.75 µM turned out to be 96%. Also, the remaining activity at 1.25 µM in assay [2] (Well no.=1790) was found to be 97.4%.

For `Cc1c(Cl)cccc1Nc1ccccc1C(=O)O` [Tolfenamic acid], the remaining activity at 3.75 µM in assay [1] (Well no.=1996) turned out to be 99.1%. Also, the remaining activity at 1.25 µM in assay [2] (Well no.=1996) came out at 97.1%.

In the case of `CCOC(=O)C1=Cc2ccc(C(F)(F)C(F)(F)F)cc2N=C(N)C1` [Toll-like receptor modulator], the remaining activity at 3.75 µM in assay [1] (Well no.=8077) turned out to be 95.6%. Also, the remaining activity at 1.25 µM in assay [2] (Well no.=8077) worked out at 108%.

Consider `Cc1ccc(C(=O)c2ccc(CC(=O)O)n2C)cc1` [Tolmetin], for which the remaining activity at 3.75 µM in assay [1] (Well no.=1998) turned out to be 101%. In addition, in assay [2] (Well no.=1998), the remaining activity at 1.25 µM is 101%.

For the compound `Cc1cccc(N(C)C(=S)Oc2ccc3ccccc3c2)c1` [Tolnaftate], in assay [1] (Well no.=4720), the remaining activity at 3.75 µM came out at 106%. In assay [2] (Well no.=4720), the remaining activity at 1.25 µM came to 105%.

As for `Cc1ccc(C(=O)C(C)CN2CCCCC2)cc1` (centres unmarked) [Tolperisone (hydrochloride)], in assay [1] (Well no.=7498), the remaining activity at 3.75 µM was 100%. Further, the remaining activity at 1.25 µM in assay [2] (Well no.=7498) came to 99%.

As to `Cc1ccc(O)c([C@H](CCN(C(C)C)C(C)C)c2ccccc2)c1` [Tolterodine tartrate (Detrol LA)], the remaining activity at 3.75 µM in assay [1] (Well no.=4918) turned out to be 94.6%. Further, the remaining activity at 1.25 µM in assay [2] (Well no.=4918) was found to be 98%.

Consider `Cc1cc(-n2c(=O)[nH]c(=O)n(C)c2=O)ccc1Oc1ccc(SC(F)(F)F)cc1` [Toltrazuril], for which, in assay [1] (Well no.=4692), the remaining activity at 3.75 µM stood at 102%. Also, the remaining activity at 1.25 µM in assay [2] (Well no.=4692) was 110%.

In the case of `Cc1ccccc1C(=O)Nc1ccc(C(=O)N2CCCC(O)c3cc(Cl)ccc32)c(C)c1` (centres unmarked) [Tolvaptan], the values for the remaining activity at 3.75 µM in assay [1] (Well no.=7517) and in assay [1] (Well no.=8388) were 95.6% and 97.5%, respectively. The remaining activity at 1.25 µM was 102% in assay [2] (Well no.=7517) and 97.7% in assay [2] (Well no.=8388).

Take `C[C@H]1CC[C@]2(NC1)O[C@H]1C[C@H]3[C@@H]4CC[C@H]5C[C@@H](O)CC[C@]5(C)[C@H]4CC[C@]3(C)[C@H]1[C@@H]2C` [Tomatidine]: the remaining activity at 3.75 µM in assay [1] (Well no.=3186) is 99.4%. In addition, in assay [2] (Well no.=3186), the remaining activity at 1.25 µM turned out to be 94.5%.

As for `CNCC[C@@H](Oc1ccccc1C)c1ccccc1` [Tomoxetine], the remaining activity at 3.75 µM in assay [1] (Well no.=1182) was found to be 95.7%. Further, the remaining activity at 1.25 µM in assay [2] (Well no.=1182) was 99.4%.

As for `CC(=O)c1ccc2c(c1)[C@H](NC(=O)c1ccc(F)c(Cl)c1)[C@H](O)C(C)(C)O2` [Tonabersat], in assay [1] (Well no.=5960), the remaining activity at 3.75 µM came out at 94.8%. In addition, in assay [2] (Well no.=5960), the remaining activity at 1.25 µM stood at 92.7%.

For the compound `CC1(C)O[C@@H]2[C@@H](CO[C@@]3(COS(N)(=O)=O)OC(C)(C)O[C@@H]23)O1` [Topiramate], the remaining activity at 3.75 µM in assay [1] (Well no.=4853) was determined as 104%; in assay [1] (Well no.=7527) it was 100%. Further, the remaining activity at 1.25 µM in assay [2] (Well no.=4853) is 101%; in assay [2] (Well no.=7527), 102%.

For `N#Cc1cc(-c2n[nH]c(-c3ccncc3)n2)ccn1` [Topiroxostat], the remaining activity at 3.75 µM in assay [1] (Well no.=8440) stood at 97.1%. Moreover, the remaining activity at 1.25 µM in assay [2] (Well no.=8440) is 96.2%.

For the compound `CC[C@@]1(O)C(=O)OCc2c1cc1n(c2=O)Cc2cc3c(CN(C)C)c(O)ccc3nc2-1` [Topotecan hydrochloride hydrate], in assay [1] (Well no.=6019), the remaining activity at 3.75 µM came out at 99%. Besides, the remaining activity at 1.25 µM in assay [2] (Well no.=6019) was 103%.

Regarding `CC[C@@]1(O)C(=O)OCc2c1cc1n(c2=O)Cc2cc3c(CN(C)C)c(O)ccc3nc2-1` [Topotecan.HCl], in assay [1] (Well no.=1964), the remaining activity at 3.75 µM stood at 97.5%. For the same compound, the remaining activity at 1.25 µM in assay [2] (Well no.=1964) was found to be 98.5%.

With `CCOC(=O)N1c2ccc(C(F)(F)F)cc2[C@@H](N(Cc2cc(C(F)(F)F)cc(C(F)(F)F)c2)C(=O)OC)C[C@H]1CC` [Torcetrapib (CP-529414)], the remaining activity at 3.75 µM in assay [1] (Well no.=4749) came to 98.1%. In addition, in assay [2] (Well no.=4749), the remaining activity at 1.25 µM came out at 95.8%.

For `CN(C)CCOc1ccc(/C(=C(/CCCl)c2ccccc2)c2ccccc2)cc1` [Toremifene], the remaining activity at 3.75 µM in assay [1] (Well no.=1966) was found to be 102%. For the same compound, the remaining activity at 1.25 µM in assay [2] (Well no.=1966) is 104%.

For the compound `CCC(=O)N1CCN(c2ccc(-n3c(=O)ccc4cnc5ccc(-c6cnc7ccccc7c6)cc5c43)cc2C(F)(F)F)CC1` [Torin 1], the remaining activity at 3.75 µM in assay [1] (Well no.=4795) came out at 102%. Besides, in assay [2] (Well no.=4795), the remaining activity at 1.25 µM is 106%.

For the compound `Nc1ccc(-c2ccc3ncc4ccc(=O)n(-c5cccc(C(F)(F)F)c5)c4c3c2)cn1` [Torin 2], the remaining activity at 3.75 µM in assay [1] (Well no.=4787) turned out to be 97.9%. Besides, the remaining activity at 1.25 µM in assay [2] (Well no.=4787) stood at 95.6%.

The values above are taken from publication PMC8286840, “Identifying SARS-CoV-2 antiviral compounds by screening for small molecule inhibitors of Nsp3 papain-like protease” (Biochemical Journal, 2021).
